Where two headings read alike, the source gives them in different places.
Experiments:
HIV strain L100I + K103N = assay: microbe, parasite or virus in culture; assay type: cell-based, HIV-1; conditions: L100I + K103N strain; MT4 LTR-EGFP cells
From the text: (§1) Image analysis allowed very sensitive detection of viral infection.

[1] = biological target: HIV strain MDR (L100I, K103N, Y181C, E138G, V1791, L2214F, V278V/I and A327A/V in HIV reverse transcriptase); assay: microbe, parasite or virus in culture; assay type: cell-based, HIV-1; conditions: MDR strain; MT4 LTR-EGFP cells
From the text: as §1
“MDR” refers to a strain that contains mutations L100I, K103N, Y181C, E138G, V1791, L2214F, V278V/I and A327A/V in HIV reverse transcriptase.

[2] = system: HIV strain IIIB (wild type); assay: microbe, parasite or virus in culture; conditions: for pSI (IIIB) (-log SI; SI = ratio of CC50 to EC50): strain IIIB, CC50 in mock-infected MT4 CMV-EGFP cells
Experimental: Compounds of the invention were tested for their potency against wild type virus and clinically isolated HIV strains harboring one or more mutations associated with resistance to reverse transcriptase inhibitors. Antiviral activity was evaluated using a cellular assay performed according to the following procedure.
The human T-cell line MT4 was engineered with Green Fluorescent Protein (GFP) and a HIV-specific promoter, HIV-1 long terminal repeat (LTR). This cell line, designated MT4 LTR-EGFP, can be used for the in vitro evaluation of anti-HIV activity of investigational compounds. In HIV-1 infected cells, the Tat protein is produced, which upregulates the LTR promotor and eventually leads to stimulation of the GFP reporter production, allowing to measure ongoing HIV-infection fluorometrically.
Analogously, MT4 cells were engineered with GFP and the constitutional cytomegalovirus (CMV) promotor. This cell line was designated MT4 CMV-EGFP, and can be used for the in vitro evaluation of cytotoxicity of investigational compounds. […] Cytotoxic investigational compounds reduce GFP levels of mock-infected MT4 CMV-EGFP cells.
The ratio of CC50 to EC50 is defined as the selectivity index (SI) and is an indication of the selectivity of the anti-HIV activity of the inhibitor. The ultimate monitoring of HIV-1 infection and cytotoxicity was done using a scanning microscope. […] Measurements were done before cell necrosis, which usually takes place about five days after infection, in particular measurements were performed three days after infection.
The columns IIIB, L100I, etc. in the table list the pEC50 (−log EC50) values against various strains IIIB, L100I, etc.; pSI lists the −log SI values.
Strain IIIB is wild type HIV strain.

[3] = wild type HIV strain IIIB, MT4 LTR-EGFP cells, three days after infection

Row | Structure (SMILES) | melting point | L100I + K103N pEC50 (-log EC50) (HIV strain L100I + K103N) | MDR pEC50 (-log EC50) [1] | pSI (IIIB) (-log SI; SI = ratio of CC50 to EC50) [2] | IIIB pEC50 (-log EC50) [2, 3] | IIIB pEC50 (-log EC50) [2]
1 | COCc1nc(Nc2ccc(C#N)cc2)nc(Nc2ccc(/C=C/C#N)cc2)c1/C=C/c1ccc(C)cc1 | 139 °C |  |  |  |  | 
2 | COCc1nc(Nc2ccc(C#N)cc2)nc(Nc2ccc(/C=C/C#N)cc2)c1/C=C/c1ccc(OC)cc1 | 207 °C |  |  |  |  | 
3 | C=C(OCC)c1c(COC)nc(Nc2ccc(C#N)cc2)nc1Nc1ccc(/C=C/C#N)cc1 | 102 °C |  |  |  |  | 
4 | COCc1nc(Nc2ccc(C#N)cc2)nc(Nc2ccc(/C=C/C#N)cc2)c1C#Cc1cccnc1 | 210 °C |  |  |  |  | 
5 | COCc1nc(Nc2ccc(C#N)cc2)nc(Nc2c(C)cc(C=CC#N)cc2C)c1C(=O)NCc1cccnc1 (mixture of isomers) [Compound 8] |  | 7.57 | 7.07 | 3.13 | 8.54 | 
6 | COCc1nc(Nc2ccc(C#N)cc2)nc(Nc2c(C)cc(C=CC#N)cc2C)c1C(=O)NCC1CCCO1 (mixture of isomers) [Compound 9] |  | 7.26 | 6.45 | 3.55 | 8.28 | 
7 | COCCNC(=O)c1c(COC)nc(Nc2ccc(C#N)cc2)nc1Nc1c(C)cc(C=CC#N)cc1C (mixture of isomers) [Compound 10] |  | 8.10 | 7.30 | 3.44 | 8.46 | 
8 | COCc1nc(Nc2ccc(C#N)cc2)nc(Nc2c(C)cc(C=CC#N)cc2C)c1C(=O)NCc1ccncc1 (mixture of isomers) [Compound 11] |  | 7.43 | 7.24 | 3.59 | 8.47 | 
9 | COCc1nc(Nc2ccc(C#N)cc2)nc(Nc2c(C)cc(C=CC#N)cc2C)c1C(=O)NCCNC(C)=O (mixture of isomers) [Compound 12] |  | 7.42 | 6.68 | 3.59 | 8.25 | 
10 | COCc1nc(Nc2ccc(C#N)cc2)nc(Nc2c(C)cc(C=CC#N)cc2C)c1C(=O)NCCN1CCOCC1 (mixture of isomers) [Compound 14] |  | 6.67 | 6.42 | 3.70 | 8.41 | 
11 | COCc1nc(Nc2ccc(C#N)cc2)nc(Nc2c(C)cc(C=CC#N)cc2C)c1C(=O)NCCC#N (mixture of isomers) [Compound 16] |  | 7.55 | 7.03 | 4.22 | 8.90 | 
12 | COCc1nc(Nc2ccc(C#N)cc2)nc(Nc2c(C)cc(C=CC#N)cc2C)c1C(=O)NCc1cccs1 (mixture of isomers) [Compound 18] |  | 6.97 | 6.42 | >3.63 | 8.23 | 
13 | COCc1nc(Nc2ccc(C#N)cc2)nc(Nc2c(C)cc(C=CC#N)cc2C)c1C(=O)N(C)CCN(C)C (mixture of isomers) [Compound 21] |  | 6.31 | 5.44 | 2.53 | 7.49 | 
14 | COCc1nc(Nc2ccc(C#N)cc2)nc(Nc2c(C)cc(C=CC#N)cc2C)c1C(=O)N1CCCC(C(N)=O)C1 (mixture of isomers) [Compound 22] |  | 6.22 | 5.64 | >2.66 | 7.27 | 
15 | COCc1nc(Nc2ccc(C#N)cc2)nc(Nc2c(C)cc(C=CC#N)cc2C)c1C(=O)N(C)OC (mixture of isomers) [Compound 25] |  | 7.19 | 6.27 | 4.02 | 8.72 | 
16 | COCc1nc(Nc2ccc(C#N)cc2)nc(Nc2c(C)cc(C=CC#N)cc2C)c1C(=O)N1CCC(O)CC1 (mixture of isomers) [Compound 27] |  | 5.79 | 5.21 | >3.61 | 8.21 | 
17 | COCc1nc(Nc2ccc(C#N)cc2)nc(Nc2c(C)cc(C=CC#N)cc2C)c1C(=O)NCCc1ccc(S(N)(=O)=O)cc1 (mixture of isomers) [Compound 29] |  | 7.01 | 6.72 | >3.23 | 7.83 | 
18 | COCCNC(=O)c1c(COC)nc(Nc2ccc(C#N)cc2)nc1Nc1c(C)cc(C=C(C)C#N)cc1C (mixture of isomers) [Compound 32] |  | 7.80 | 7.05 |  | 8.48 | 
19 | COCc1nc(Nc2ccc(C#N)cc2)nc(Oc2c(C)cc(C=CC#N)cc2C)c1C(=O)NCc1ccncc1 (mixture of isomers) [Compound 33] |  | 7.03 | 5.91 | 3.54 | 8.40 | 
20 | COCc1nc(Nc2ccc(C#N)cc2)nc(Oc2c(C)cc(C=C(C)C#N)cc2C)c1C(=O)NCc1ccncc1 (mixture of isomers) [Compound 34] |  | 6.49 | 5.81 | 3.22 | 8.38 | 
21 | COCCNC(=O)c1c(COC)nc(Nc2ccc(C#N)cc2)nc1Oc1c(C)cc(C=CC#N)cc1C (mixture of isomers) [Compound 35] |  | 7.09 | 6.18 | 3.76 | 8.54 | 
22 | COCc1nc(Nc2ccc(C#N)cc2)nc(Nc2c(C)cc(/C=C/C#N)cc2C)c1C(=O)NCCN(C)C [Compound 13] |  | 6.81 | 5.69 | 3.32 | 8.41 | 
23 | COCc1nc(Nc2ccc(C#N)cc2)nc(Nc2c(C)cc(/C=C/C#N)cc2C)c1C(=O)NCCc1ccccn1 [Compound 15] |  | 7.24 | 6.43 | 3.52 | 8.55 | 
24 | COCc1nc(Nc2ccc(C#N)cc2)nc(Nc2c(C)cc(/C=C/C#N)cc2C)c1C(=O)N1CCN(CCO)CC1 [Compound 17] |  | 6.59 | 5.19 | >2.83 | 7.43 | 
25 | COCc1nc(Nc2ccc(C#N)cc2)nc(Nc2c(C)cc(/C=C/C#N)cc2C)c1C(=O)NCC(OC)OC [Compound 19] |  | 7.38 | 6.97 | 3.83 | 8.59 | 
26 | COCc1nc(Nc2ccc(C#N)cc2)nc(Nc2c(C)cc(/C=C/C#N)cc2C)c1C(=O)NCc1ccccn1 [Compound 20] |  | 7.28 | 7.03 | 3.81 | 8.83 | 
27 | COCc1nc(Nc2ccc(C#N)cc2)nc(Nc2c(C)cc(/C=C/C#N)cc2C)c1C(=O)NC1CC1 [Compound 23] |  | 7.81 | 6.85 | 3.87 | 8.62 | 
28 | C=CCNC(=O)c1c(COC)nc(Nc2ccc(C#N)cc2)nc1Nc1c(C)cc(/C=C/C#N)cc1C [Compound 24] |  | 7.99 | 6.72 |  |  | 8.66
29 | COCc1nc(Nc2ccc(C#N)cc2)nc(Nc2c(C)cc(/C=C/C#N)cc2C)c1C(=O)NCCc1cccs1 [Compound 30] |  | 6.67 | 5.79 | >3.24 | 7.84 | 

Source: patent publication US8318736B2, “HIV inhibiting 5,6-substituted pyrimidines” (Janssen R&D Ireland, priority 2006, dated 2012)
